Measurements taken from US20230055705A1, “SUBSTITUTED THIOPHENE CARBOXAMIDES AND DERIVATIVES THEREOF” (Bayer Aktiengesellschaft, priority 2019, published 2023).

System: Xanthomonas campestris pv. campestris
Experiment: In vivo preventive test on Xanthomonas campestris pv. campestris (black rot on cabbage)
Settings: 31 ppm of active ingredient, evaluated 8 or 10 days after inoculation, read-out: efficacy
Method: The tested active ingredients were prepared by homogenization in a mixture of acetone/Dimethyl sulfoxide/Tween®, and then diluted with water to obtain the desired active material concentration.
The young plants of cabbage were treated by spraying the active ingredient prepared as described above. Control plants were treated only with an aqueous solution of acetone/Dimethyl sulfoxide/Tween®.
After 72 hours, the plants were contaminated by spraying the leaves with an aqueous bacteria suspension of Xanthomonas campestris pv. campestris. The contaminated cabbage plants were incubated for 8 or 10 days at 27° C. at 95% relative humidity.
The test was evaluated 8 or 10 days after the inoculation. 0% means an efficacy which corresponds to that of the control plants while an efficacy of 100% means that no disease was observed. […]
Compounds CMP1, CMP2, CMP3 and CMP4 were tested in an in vivo preventive test on Xanthomonas campestris pv. campestris (black rot on cabbage) in the same conditions as described in Example H.

Row | SMILES | pest or weed control at 31 ppm
1 | CCOC(=O)C(C)N(C(=O)c1sc(Cl)c(Cl)c1Cl)C1CC1 (centres unmarked) [I.110] | 70 to 79%

Same assay, conditions: 125 ppm of active ingredient, evaluated 8 or 10 days after inoculation, read-out: efficacy

Row | SMILES | pest or weed control at 125 ppm
2 | CNC(=O)[C@@H](NC(=O)c1sc(Cl)c(Cl)c1Cl)C(C)C [I.096] | 80 to 89%
3 | CCOC(=O)C(C)N(C(=O)c1sc(Cl)c(Cl)c1Cl)C1CC1 (centres unmarked) [I.110] | 70 to 79%

System: Uromyces appendiculatus
Experiment: In vivo preventive test on Uromyces appendiculatus (bean rust)
Settings: 240 h, 8 ppm, evaluated 10 days after inoculation, read-out: efficacy
Method: (§1) The tested active ingredients were prepared by homogenization in a mixture of acetone/Dimethyl sulfoxide/Tween®, and then diluted with water to obtain the desired active material concentration. The young plants of bean were treated by spraying the active ingredient prepared as described above. Control plants were treated only with an aqueous solution of acetone/Dimethyl sulfoxide/Tween®.
After 72 hours, the plants were contaminated by spraying the leaves with an aqueous suspension of Uromyces appendiculatus spores. The contaminated bean plants were incubated for 24 hours at 20° C. and at 100% relative humidity and then for 9 days at 20° C. and at 70-80% relative humidity. The test was evaluated 10 days after the inoculation. 0% means an efficacy which corresponds to that of the control plants while an efficacy of 100% means that no disease was observed.
Compounds CMP5 and CMP6 were tested in an in vivo preventive test on Uromyces appendiculatus (bean rust) in the same conditions as described in Example I.

Row | SMILES | pest or weed control at 8 ppm
4 | CC(C)[C@H](NC(=O)c1sc(Cl)c(Cl)c1Cl)C(=O)O [CMP5, reference compound] | < 20%

Same assay, conditions: 240 h, 125 ppm of active ingredient, evaluated 10 days after inoculation, read-out: efficacy

Row | SMILES | pest or weed control at 125 ppm
5 | CCOC(=O)C(C)N(C(=O)c1sc(Cl)c(Cl)c1Cl)C1CC1 (centres unmarked) [I.110] | 70 to 79%

Same assay, conditions: 240 h, 500 ppm of active ingredient, evaluated 10 days after inoculation, read-out: efficacy

Row | SMILES | pest or weed control at 500 ppm
6 | CCOC(=O)[C@@H](NC(=O)c1sc(Cl)c(Cl)c1Cl)C(C)C [CMP6, reference compound] | < 40%
7 | CCOC(=O)C(C)N(C(=O)c1sc(Cl)c(Cl)c1Cl)C1CC1 (centres unmarked) [I.110] | 90 to 100%

System: Peronospora parasitica
Experiment: In vivo preventive test on Peronospora parasitica (Crucifer downy mildew)
Settings: 500 ppm of active ingredient, cabbage, evaluated 5 days after inoculation
Method: as §1, with “cabbage” for “bean”
After 72 hours, the plants were contaminated by spraying the leaves with an aqueous suspension of Peronospora parasitica spores. The contaminated cabbage plants were incubated for 5 days at 20° C. and at 100% relative humidity.
The test was evaluated 5 days after the inoculation. 0% means an efficacy which corresponds to that of the control plants while an efficacy of 100% means that no disease was observed.
Compounds CMP2 and CMP3 were tested in an in vivo preventive test on Peronospora parasitica (Crucifer downy mildew) in the same conditions as described in Example G.

Row | SMILES | efficacy
8 | CCOC(=O)[C@H](C)NC(=S)c1sc(Cl)c(Cl)c1Cl [I.118] | 70%

Same assay, conditions: Hyaloperonospora parasitica, in Brassica oleracea, 120 h, 500 ppm of active ingredient, cabbage, evaluated 5 days after inoculation, read-out: efficacy

Row | SMILES | pest or weed control at 500 ppm
9 | CCOC(=O)C(C)N(C(=O)c1sc(Cl)c(Cl)c1Cl)C1CC1 (centres unmarked) [I.110] | 70 to 79%

System: salicylate responsive promoter sequence of the PR1 (pathogenesis-related protein I) gene (AT2G14610)
Experiment: Induction of defense gene expression in Arabidopsis thaliana (PR1 promoter-GFP reporter plants)
Format: in vivo
Settings: 300 ppm; 3rd day after spraying; mock treated leaves set as 1.00
Method: Arabidopsis thaliana reporter plants containing the coding sequence of a green fluorescent protein (GFP) linked to the salicylate responsive promoter sequence of the PR1 (pathogenesis-related protein I) gene (AT2G14610) were grown for five days and then sprayed with compounds. On the 3rd day after spraying, plant fluorescence was assessed with a MacroFluo instrument from Leica Microsystems (Wetzlar, Germany). Fluorescences were quantified with the Meta-Morph Microscopy Automation & Image Analysis Software (Molecular Devices, Sunnyvale, Calif., United States). Background fluorescence in mock treated leaves was set as 1.00.

Row | SMILES | relative fluorescence value
10 | O=C(O)c1ccccc1O [Salicylic acid, reference compound] | 2.70

System: not listed separately
Experiment: LogP by HPLC on reversed phase columns (EEC directive 79/831 Annex V.A8)
Format: physicochemical
Settings: not given
Method: In the above tables, measurement of LogP values was performed according to EEC directive 79/831 Annex V.A8 by HPLC (High Performance Liquid Chromatography) on reversed phase columns with the following methods: • ^[a]
Calibration was done with straight-chain alkan2-ones (with 3 to 16 carbon atoms) with known LogP values (measurement of LogP values using retention times with linear interpolation between successive alkanones). Lambda-max-values were determined using UV-spectra from 200 nm to 400 nm and the peak values of the chromatographic signals.

Row | SMILES | LogP
11 | CCOC(=O)[C@H](C)NC(=S)c1sc(Cl)c(Cl)c1Cl [I.118] | 5.21^[a]
12 | COC(=O)C1(NC(=O)c2sc(Cl)c(Cl)c2Cl)CCOC1 (centres unmarked) [I.076] | 3.00^[a]
13 | CCOC(=O)[C@H](CO)NC(=O)c1sc(Cl)c(Cl)c1Cl [I.083] | 2.78^[a]
14 | CCNC(=O)[C@@H](NC(=O)c1sc(Cl)c(Cl)c1Cl)C(C)C [I.094] | 3.43^[a]
15 | COC(=O)C1(NC(=O)c2sc(Cl)c(Cl)c2Cl)CCC1 [I.112] | 3.69^[a]
16 | O=C(CNC(=O)c1sc(Cl)c(Cl)c1Cl)Sc1ccccc1 [I.042] | 4.27^[a]
17 | CC(C)(C#N)NC(=O)c1sc(Cl)c(Cl)c1Cl [I.132] | 3.19^[a]
18 | N#CC(Cc1ccccc1)NC(=O)c1sc(Cl)c(Cl)c1Cl (centres unmarked) [I.035] | 4.13^[a]
19 | N#CC1(NC(=O)c2sc(Cl)c(Cl)c2Cl)CCSCC1 [I.133] | 3.72^[a]
20 | O=C1CC(NC(=O)c2sc(Cl)c(Cl)c2Cl)CN1 (centres unmarked) [I.028] | 1.86^[a]
21 | N#CC1(NC(=O)c2sc(Cl)c(Cl)c2Cl)CC1 [I.032] | 2.88^[a]
22 | O=C(NC(CO)C(=O)O)c1sc(Cl)c(Cl)c1Cl (centres unmarked) [I.056] | 1.94^[a]
23 | O=C(CNC(=O)c1sc(Cl)c(Cl)c1Cl)NO [I.148] | 1.70^[a]
24 | O=C(NC1CCNC1=O)c1sc(Cl)c(Cl)c1Cl (centres unmarked) [I.004] | 1.98^[a]
25 | NC(=S)C1(NC(=O)c2sc(Cl)c(Cl)c2Cl)CC1 [I.105] | 2.62^[a]
26 | CCOC(=O)C(NC(=O)c1sc(Cl)c(Cl)c1Cl)C(F)(F)F (centres unmarked) [I.123] | 4.47^[a]
27 | CCOC(=O)C(NC(=S)c1sc(Cl)c(Cl)c1Cl)C(C)C (centres unmarked) [I.092] | 6.17^[a]
28 | N#CC1(NC(=O)c2sc(Cl)c(Cl)c2Cl)CCC(C2CCCCC2)CC1 (centres unmarked) [I.134] | 6.41^[a]
29 | O=C(NC1CCCCNC1=O)c1sc(Cl)c(Cl)c1Cl (centres unmarked) [I.125] | 2.93^[a]

Row | SMILES | LogP
30 | O=C(NC1(C(=O)OCc2ccccc2)CCC1)c1sc(Cl)c(Cl)c1Cl [I.100] | 5.00^[a]
31 | COC(=O)C1(NC(=O)c2sc(Cl)c(Cl)c2Cl)CC(C)(C)C1 [I.087] | 4.48^[a]
32 | O=C(NC1(C(=O)NO)CC1)c1sc(Cl)c(Cl)c1Cl [I.050] | 1.91^[a]
33 | O=C(CNC(=O)c1sc(Cl)c(Cl)c1Cl)SCc1ccccc1 [I.041] | 4.56^[a]
34 | COC(=O)C(CCSC(C)=O)NC(=O)c1sc(Cl)c(Cl)c1Cl (centres unmarked) [I.127] | 3.94^[a]
35 | CN(C)C(=S)CNC(=O)c1sc(Cl)c(Cl)c1Cl [I.129] | 3.68^[a]
36 | NC(=O)C1(NC(=O)c2sc(Cl)c(Cl)c2Cl)CC1 [I.060] | 2.00^[a]
37 | CCOC(=O)C(CC1CC1)NC(=O)c1sc(Cl)c(Cl)c1Cl (centres unmarked) [I.058] | 4.81^[a]
38 | NC(=O)CCC(NC(=O)c1sc(Cl)c(Cl)c1Cl)C(=O)O (centres unmarked) [I.002] | 1.73^[a]
39 | O=C(N[C@H]1CCOC1=O)c1sc(Cl)c(Cl)c1Cl [I.121] | 2.49^[a]
40 | CONC(=O)C1(NC(=O)c2sc(Cl)c(Cl)c2Cl)CC1 [I.055] | 2.14^[a]
41 | COC(=O)C(NC(=O)c1sc(Cl)c(Cl)c1Cl)(C1CC1)C1CC1 [I.005] | 4.51^[a]
42 | O=C(NC1(C(=O)OC2CCC2)CCC1)c1sc(Cl)c(Cl)c1Cl [I.102] | 4.93^[a]
43 | CCCOC(=O)C1(NC(=O)c2sc(Cl)c(Cl)c2Cl)CCC1 [I.101] | 4.74^[a]
44 | COC(=O)C1(NC(=O)c2sc(Cl)c(Cl)c2Cl)CC(F)(F)C1 [I.088] | 3.65^[a]
45 | CNC(=S)CNC(=O)c1sc(Cl)c(Cl)c1Cl [I.128] | 2.89^[a]
46 | CN(C)C(=O)CNC(=O)c1sc(Cl)c(Cl)c1Cl [I.065] | 2.47^[a]
47 | O=C1CC(NC(=O)c2sc(Cl)c(Cl)c2Cl)CCN1 (centres unmarked) [I.030] | 1.93^[a]
48 | O=C(NC1CCOC1=O)c1sc(Cl)c(Cl)c1Cl (centres unmarked) [I.029] | 2.48^[a]

Row | SMILES | LogP
49 | COC(=O)[C@H](CC(=O)O)NC(=O)c1sc(Cl)c(Cl)c1Cl [I.081] | 2.46^[a]
50 | CCOC(=O)C1(NC(=S)c2sc(Cl)c(Cl)c2Cl)CC1 [I.037] | 4.61^[a]
51 | NC(=O)CC(NC(=O)c1sc(Cl)c(Cl)c1Cl)C(=O)O (centres unmarked) [I.001] | 1.81^[a]
52 | O=C1SCCC1NC(=S)c1sc(Cl)c(Cl)c1Cl (centres unmarked) [I.019] | 4.37^[a]
53 | CCOC(=O)C1(C2(NC(=O)c3sc(Cl)c(Cl)c3Cl)CC2)CC1 [I.047] | 4.83^[a]
54 | N#CNC(=O)C1(NC(=O)c2sc(Cl)c(Cl)c2Cl)CC1 [I.107] | 2.57^[a]
55 | COC(=O)[C@H](CCC(=O)O)NC(=O)c1sc(Cl)c(Cl)c1Cl [I.075] | 2.57^[a]
56 | COC(=O)C(C1CC1)N(O)C(=O)c1sc(Cl)c(Cl)c1Cl (centres unmarked) [I.021] | 3.00^[a]
57 | CN(CC#N)C(=O)CNC(=O)c1sc(Cl)c(Cl)c1Cl [I.063] | 2.62^[a]
58 | O=C(NC1CCCNC1=O)c1sc(Cl)c(Cl)c1Cl (centres unmarked) [I.031] | 2.20^[a]
59 | CCOC(=O)CN(C(=O)c1sc(Cl)c(Cl)c1Cl)C1CC1 [I.116] | 3.78^[a]
60 | COC(=O)C(NC(=S)c1sc(Cl)c(Cl)c1Cl)C(C)C (centres unmarked) [I.093] | 5.61^[a]
61 | CC(C)(C)OC(=O)C1(NC(=O)c2sc(Cl)c(Cl)c2Cl)CC(F)(F)C1 [I.086] | 4.81^[a]
62 | O=C(NC1(C(=O)OC2CCCCC2)CCC1)c1sc(Cl)c(Cl)c1Cl [I.103] | 5.84^[a]
63 | CCNC(=O)SC[C@H](NC(=O)c1sc(Cl)c(Cl)c1Cl)C(=O)OC [I.141] | 3.36^[a]
64 | COC(=O)[C@@H](CC(N)=O)NC(=O)c1sc(Cl)c(Cl)c1Cl [I.014] | 2.11^[a]
65 | CCOC(=O)CCNC(=O)c1sc(Cl)c(Cl)c1Cl [I.026] | 3.46^[a]
66 | CCOC(=O)C1(NC(=O)c2sc(Cl)c(Cl)c2Cl)CCOCC1 [I.077] | 3.39^[a]

Same assay, conditions: reversed phase HPLC columns, method [a]: LC-UV, in an acidic range, with 0.1% formic acid in water and acetonitrile as eluent (linear gradient from 10% to 95% acetonitrile)

Row | SMILES | chromatographic logP
67 | CNC(=O)[C@@H](NC(=O)c1sc(Cl)c(Cl)c1Cl)C(C)C [I.096] | 2.97
68 | CCOC(=O)C(C)N(C(=O)c1sc(Cl)c(Cl)c1Cl)C1CC1 (centres unmarked) [I.110] | 4.23
